Reference: patent US12648921B2, “Capric acid and myristic acid compositions for treating conditions” (The Cleveland Clinic Foundation, priority 2016, dated 2026)

Tested on: house dust mite (D. Pteronyssinus) extract (HDME) sensitized and challenged mice
Test: Airway hyper-reactivity and lung mechanics in house dust mite extract sensitized mice fed purified MCF diets
Format: in vivo
Conditions: mice fed purified MCF diet, 100 mg/day (4 g/kg body weight); for overall airway constriction (Rrs) induced by increasing dose of methacholine: FIG. 1, from six weeks before HDME sensitization; for ability of the lungs to stretch (Crs, lung compliance) in response to increasing dose of methacholine: FIG. 2; for stiffness of the lungs (Ers) in response to increasing dose of methacholine: FIG. 3; for amount of forcefully exhaled air (FEV) in response to increasing dose of methacholine: FIG. 4
Experimental: Mice were fed with standard, coconut oil or MCF supplemented diets starting six weeks before allergen sensitization. Isofluorane anesthetized mice received 100 ug house dust mite (D. Pteronyssinus) extract (HDME) (Greer Labs, NC) in […] by nasal aspiration. Five days later mice were challenged daily with 10 ug HDME for 5 days. Three days, after the last HDME exposure, airway hyper-reactivity is measured and lungs collected for analysis. The diets were 15 kcal % fat at a dose of 21 g coconut oil or purified MCF per kg diet. Based on the daily food intake of 4.75 g/day/25 g mouse, each mouse consumes 100 mg of coconut oil or MCF per day. The results of this examples are shown in FIGS. 1-4, which show the results with the mice treated with the various fatty acids, which are present mainly as triglycerides in coconut oil.

Row | SMILES | overall airway constriction (Rrs) induced by increasing dose of methacholine | ability of the lungs to stretch (Crs, lung compliance) in response to increasing dose of methacholine | stiffness of the lungs (Ers) in response to increasing dose of methacholine | amount of forcefully exhaled air (FEV) in response to increasing dose of methacholine
1 | CCCCCCCCCC(=O)O [C10, capric acid] | inhibited | improved | decreased | increased
2 | CCCCCCCCCCCCCC(=O)O [C14, myristic acid] | inhibited | improved | decreased | increased
